This is an account of results in ChEMBL document CHEMBL1201862, “PubChem BioAssay data set” (2004).

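Values below derive from 48-hour exposures of cells grown in 96-well plates, with endpoints linearly interpolated between the two concentrations bracketing the appropriate inhibition level. GI50 marks 50% less growth.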 Active and inactive are the calls of the source. Cut-off read from the data, not from the text of the source: active = GI50 up to about 1.1 µM and inactive = higher.

As a reminder, the GI50 is the concentration that inhibits growth by half.

Among the test systems are A498; ACHN; HCT-15; HL-60; HOP-62; HT-29; MDA-MB-435; NCI/ADR-RES; OVCAR-5; RPMI-8226; SF-539; SK-MEL-2; SK-MEL-5; SN12C; TK-10; U-251; UACC-257; UACC-62; UO-31; NCI-H522.
Holding throughout (test): DTP human tumour cell line panel, 48 h

For `Cc1[nH]c2ncn(Nc3ccccc3)c(=N)c2c1Cc1ccccc1`, the GI50 with A498 was 33 µM (inactive); with ACHN it was 4.22 µM (inactive); in the experiment with HCT-15, 4.34 µM; in the experiment with HL-60 it was 1.73 µM (inactive); with HOP-62, 32.4 µM (inactive); with HT-29 it was 2.6 µM (inactive). Further, the GI50 in the experiment on MDA-MB-435 is 0.491 µM (active); in the experiment with NCI/ADR-RES, 29.6 µM (inactive); with OVCAR-5, 11.2 µM (inactive); in the experiment on RPMI-8226, > 60.7 µM (inactive); in the experiment with SF-539, > 100 µM (inactive); with SK-MEL-2, 0.142 µM (active). The GI50 was 0.386 µM (active) in the experiment on SK-MEL-5; > 80.5 µM (inactive) in the experiment with SN12C; > 75.9 µM (inactive) in the experiment on TK-10; 19.7 µM (inactive) in the experiment with U-251; 0.462 µM (active) with UACC-257; 0.0254 µM (active) in the experiment with UACC-62. The GI50 with UO-31 was > 100 µM (inactive).

In the case of `Cc1cc2[nH]c3c(C#N)c4c(c(=O)n3c2cc1C)CCCC4`, the GI50 is > 100 µM (inactive) with A498; 72.1 µM (inactive) with ACHN; more than 100 µM in the experiment on HCT-15; 96.6 µM (inactive) in the experiment with HL-60; > 100 µM (inactive) with HT-29; 67.3 µM (inactive) in the experiment on MDA-MB-435. In addition, the GI50 with NCI-H522 is > 100 µM (inactive); in the experiment on NCI/ADR-RES it was > 100 µM (inactive); with OVCAR-5, 18.7 µM (inactive); in the experiment with SF-539 it was > 100 µM (inactive); with SK-MEL-2, > 100 µM (inactive); with SK-MEL-5 it was 32.6 µM (inactive). For the same compound, the GI50 in the experiment with SN12C is > 100 µM (inactive); with TK-10, > 100 µM (inactive); with U-251, 40.2 µM (inactive); in the experiment on UACC-257 it was > 100 µM (inactive); in the experiment with UACC-62 it was > 100 µM (inactive); in the experiment with UO-31 it was > 100 µM (inactive).

Take `O=C1CSC(c2cccc(Cl)c2)N1c1c(O)c(Cl)cc(Br)c1Cl` (stereo not given): the GI50 in the experiment with A498 is > 100 µM (inactive); in the experiment on ACHN it was 14.8 µM (inactive); with HCT-15 it was 15 µM; with HL-60, 25.8 µM (inactive); in the experiment with HOP-62, > 100 µM (inactive); in the experiment with HT-29, > 100 µM (inactive). The GI50 is 17.1 µM (inactive) in the experiment with MDA-MB-435; 71 µM (inactive) with NCI/ADR-RES; > 100 µM (inactive) with OVCAR-5; 15.9 µM (inactive) with RPMI-8226; 28.8 µM (inactive) in the experiment with SF-539; 14.9 µM (inactive) in the experiment on SK-MEL-2. Besides, the GI50 with SK-MEL-5 was 27.3 µM (inactive); with SN12C it was 58.5 µM (inactive); with TK-10, 83.4 µM (inactive); in the experiment on U-251, 25.5 µM (inactive); in the experiment with UACC-257, 22.4 µM (inactive); in the experiment with UACC-62, 22.6 µM (inactive). For the same compound, the GI50 in the experiment with UO-31 is 15.6 µM (inactive).

In the case of `CC12CCC(CC1=O)C2(C)CCC(N)=O` (stereo not given), the GI50 in the experiment with A498 was > 100 µM (inactive); in the experiment on ACHN it was > 100 µM (inactive); with HCT-15, more than 100 µM; with HOP-62 it was > 100 µM (inactive); with HT-29 it was > 100 µM (inactive); in the experiment on MDA-MB-435, > 100 µM (inactive). For the same compound, the GI50 in the experiment with NCI-H522, in the experiment with NCI/ADR-RES, in the experiment with OVCAR-5, in the experiment on RPMI-8226, in the experiment on SK-MEL-2 and with SK-MEL-5 was > 100 µM (inactive) in each case. Also, the GI50 with SN12C, in the experiment on TK-10, in the experiment with U-251, in the experiment on UACC-257, in the experiment on UACC-62 and with UO-31 was > 100 µM (inactive) throughout.

In the case of `COC(=O)C1=C(O)C(C(=O)OC)[C@]2(O)[C@H](C(=O)OC)[C@H]1C[C@@H](c1ccc(OC)c(OC)c1)[C@H]2C(=O)OC` (stereo not given in full), the GI50 in the experiment on A498 is 18 µM (inactive); in the experiment with ACHN, 25.8 µM (inactive); with HCT-15 it was 14 µM; in the experiment with HL-60, 7.83 µM (inactive); in the experiment with HOP-62 it was 16.7 µM (inactive); with HT-29, 36.9 µM (inactive). Moreover, the GI50 was 11.3 µM (inactive) with MDA-MB-435; 15.5 µM (inactive) with NCI/ADR-RES; 23.6 µM (inactive) with OVCAR-5; 3.27 µM (inactive) in the experiment with RPMI-8226; 4.78 µM (inactive) in the experiment on SF-539; 20 µM (inactive) with SK-MEL-2. In addition, the GI50 in the experiment on SK-MEL-5 was 13.3 µM (inactive); in the experiment with SN12C, 28.2 µM (inactive); in the experiment on TK-10, 24.9 µM (inactive); with U-251 it was 11.2 µM (inactive); in the experiment on UACC-257, 20.5 µM (inactive); in the experiment with UACC-62, 22.9 µM (inactive). The GI50 in the experiment on UO-31 is 24.5 µM (inactive).

As for `Cc1c(CCN2CCOCC2)c(N2CCOCC2)n2c(nc3ccccc32)c1C#N`, the GI50 is 6.31 µM (inactive) in the experiment on A498; > 10 µM (inactive) with ACHN; more than 10 µM in the experiment on HCT-15; > 10 µM (inactive) in the experiment on HL-60; > 10 µM (inactive) in the experiment on HOP-62; > 10 µM (inactive) in the experiment with HT-29. The GI50 in the experiment with MDA-MB-435, with NCI/ADR-RES, in the experiment with OVCAR-5, in the experiment on RPMI-8226, in the experiment with SF-539 and with SK-MEL-5 was > 10 µM (inactive) each time. Moreover, the GI50 in the experiment on SN12C, with TK-10, with U-251, in the experiment on UACC-257, in the experiment on UACC-62 and with UO-31 was > 10 µM (inactive) throughout.

With `C=CCc1cc(C=C(C#N)C#N)cc(OC)c1O`, the GI50 in the experiment with A498 is > 100 µM (inactive); in the experiment on ACHN, > 100 µM (inactive); in the experiment with HCT-15, 67.6 µM; with HL-60, 28.2 µM (inactive); in the experiment on HT-29, > 100 µM (inactive); in the experiment on MDA-MB-435 it was 59 µM (inactive). In addition, the GI50 with NCI-H522 was 90.6 µM (inactive); in the experiment with NCI/ADR-RES it was > 100 µM (inactive); in the experiment on OVCAR-5, > 100 µM (inactive); in the experiment with RPMI-8226, 39.4 µM (inactive); in the experiment with SF-539, > 100 µM (inactive); in the experiment with SK-MEL-2 it was > 100 µM (inactive). Further, the GI50 in the experiment on SK-MEL-5 is 27.7 µM (inactive); in the experiment with TK-10, > 100 µM (inactive); with U-251, 76.2 µM (inactive); with UACC-257, > 100 µM (inactive); with UACC-62 it was 94.2 µM (inactive); with UO-31, > 100 µM (inactive).

As for `COc1ccccc1CNC1=Nc2ccncc2S(=O)(=O)N1c1ccccc1`, the GI50 with A498 is 45.8 µM (inactive); with ACHN it was > 100 µM (inactive); in the experiment with HCT-15, 49.7 µM; in the experiment with HL-60, 41.1 µM (inactive); with HT-29, > 100 µM (inactive); in the experiment with MDA-MB-435, > 100 µM (inactive). In addition, the GI50 in the experiment on NCI-H522 is 25.1 µM (inactive); with NCI/ADR-RES, 57.5 µM (inactive); with OVCAR-5, > 100 µM (inactive); in the experiment with RPMI-8226 it was 60.5 µM (inactive); with SK-MEL-5, 34 µM (inactive); in the experiment with SN12C it was > 100 µM (inactive). Further, the GI50 with TK-10 is > 100 µM (inactive); with U-251, 52.1 µM (inactive); with UACC-257 it was 82.8 µM (inactive); with UACC-62, 35.9 µM (inactive); with UO-31, > 100 µM (inactive).

On to `CCOP(=O)(OCC)/C(=C/c1ccccc1)CC(C)=O`, for which the GI50 in the experiment with A498 was > 100 µM (inactive); in the experiment on ACHN it was > 100 µM (inactive); with HCT-15, more than 100 µM; with HL-60 it was 22.1 µM (inactive); in the experiment on HOP-62, > 100 µM (inactive); with HT-29 it was > 100 µM (inactive). Moreover, the GI50 in the experiment with MDA-MB-435, in the experiment with NCI/ADR-RES, in the experiment with OVCAR-5, with SF-539, in the experiment on SK-MEL-2 and in the experiment on SK-MEL-5 was > 100 µM (inactive) each time. The GI50 with SN12C, with TK-10, in the experiment on U-251, in the experiment with UACC-257, with UACC-62 and with UO-31 was > 100 µM (inactive) throughout.

Take `CN1C(=O)C(C(=O)Nc2ccccn2)C2C[C@@]1(C)Oc1ccccc12` (stereo not given in full): the GI50 in the experiment on A498 is 11.1 µM (inactive); in the experiment on ACHN it was 0.861 µM (active); with HCT-15, more than 100 µM; in the experiment with HL-60 it was > 100 µM (inactive); in the experiment with HOP-62 it was > 100 µM (inactive); with HT-29, > 100 µM (inactive). Moreover, the GI50 in the experiment with MDA-MB-435 was > 100 µM (inactive); in the experiment with NCI-H522, > 100 µM (inactive); in the experiment on NCI/ADR-RES it was > 100 µM (inactive); in the experiment on OVCAR-5, > 100 µM (inactive); in the experiment with RPMI-8226, 56.1 µM (inactive); in the experiment on SK-MEL-2, > 100 µM (inactive). Also, the GI50 in the experiment on SK-MEL-5 was > 100 µM (inactive); with TK-10 it was > 100 µM (inactive); in the experiment on U-251 it was > 100 µM (inactive); in the experiment on UACC-257 it was > 100 µM (inactive); in the experiment on UACC-62 it was 12 µM (inactive); in the experiment with UO-31, > 100 µM (inactive).

As for `Cn1c2ccccc2c2cc(N3CCCC3)c3c(c21)C(=O)N(c1ccccc1)C3=O`, the GI50 in the experiment on A498 is > 100 µM (inactive); in the experiment on ACHN it was > 100 µM (inactive); in the experiment on HCT-15, more than 100 µM; with HL-60 it was > 100 µM (inactive); in the experiment with HOP-62, 60.8 µM (inactive); in the experiment with HT-29, > 100 µM (inactive). In addition, the GI50 in the experiment on MDA-MB-435, in the experiment on NCI-H522, in the experiment with NCI/ADR-RES, with OVCAR-5, in the experiment on RPMI-8226 and in the experiment with SK-MEL-5 was > 100 µM (inactive) each time. Moreover, the GI50 is > 100 µM (inactive) with SN12C; > 100 µM (inactive) in the experiment on TK-10; > 100 µM (inactive) with U-251; > 100 µM (inactive) with UACC-257; 56.8 µM (inactive) with UACC-62; > 100 µM (inactive) with UO-31.
